The record followed here is patent publication US20230414771A1, “PREPARATION AND USE OF IMMUNOSTIMULATORY CONJUGATED COMPLEXES FOR TARGETED DELIVERY AND ACTIVATION” (YAFEI SHANGHAI BIOLOGY MEDICINE SCIENCE & TECHNOLOGY CO., …, priority 2020, published 2023).

Where two headings read alike, the source gives them in different places. Where a SMILES comes first, the peptide text is derived from it. The star is where a group is joined. Doxorubicin(3'-N) = COc1cccc2c1C(=O)c1c(O)c3c(c(O)c1C2=O)C[C@@](O)(C(=O)CO)C[C@@H]3O[C@H]1C[C@H](N*)[C@H](O)[C@H](C)O1; Hexanoyl(6-maleimido) = O=C1C=CC(=O)N1CCCCCC(=O)*; X1 = O=C1C=CC(=O)N1CCOCCOCCOCCC(=O)*; X3 = O=C1C=CC(=O)N1CCOCCOCCC(=O)*; MeOCH2CH2OCH2CO = COCCOCC(=O)* Where only a bound is given, the exact number is not on record here.

In series [1] the test system is acidified human breast cancer (MDA-MB435) tumor tissue homogenate. In words: Activation efficiency of S-C-A linkers in tumor tissue homogenate, HPLC. In kind it is biochemical. To be noted: C is AAN, 1 mg/ml, homogenate pH 6.0, 37° C. As to the method:
When C is AAN, the activation of the different S-C-A linkers and the control linker is evaluated in an activation assay. They were dissolved and diluted tenfold using S-C-A conjugates to a concentration of 0.1 mM/ml. The sample compounds were added at a concentration of 1 mg/ml to 100 μg of acidified human breast cancer (MDA—MB435) tumor tissue homogenate (pH 6.0) at 37° C. The enzyme in the tumor tissue homogenate was released and detected by HPLC to compare the efficiency of activation of the linker by the tumor tissue.
The effect of the D-type tripeptide on the activation efficiency was examined in comparison to the native peptide sequence linker cleaved by Legumain, S1 in MI-S is —CH2CH2—CONH—, S2: 2 peg.

In the next series the test system is M2 macrophages. Nature of the series: Cytotoxicity screening, inhibition rate of M2 macrophages at 10 uM. In kind it is cell-based, C57BL/6 mice. To be noted: 10 uM drug per well, 3 wells, relative to the drug-free group. Here is the method:
After the cell count in Example 13, the cell concentration was adjusted with the culture medium, and the cells were seeded in a 96-well culture plate at […] of cell suspension per well, wherein the seeding concentration of CD8+ T cells was 100000 cells/well, and the seeding concentration of M2 macrophages was 20000 cells/well. The 96-well plate was incubated overnight for 24 hour at 37° C. in a carbon dioxide (5%) incubator. After 24 hours, 100 ul of cell culture solutions containing different concentrations of drugs were added to the 96-well culture plate. At the same time, a control well (0.1% DMSO) with no drug added and only the corresponding drug solvent and a zero-adjusted well (Blank) with only medium and no cells added was set. Each set was prepared in triplicate and the plates were incubated for 48 hours at 37° C. in a 5% CO2 incubator. After 48 hours, 20 μl MTT (5 mg/ml) was added to each well and the incubation was continued for 4 hours. The culture medium was then gently aspirated, and 150 μl DMSO was added to each well as solvent for dissolution. After dissolution, the absorbance at 490 nm was measured with a microplate reader.
Cytotoxicity screening experiments for some compounds were performed for M2 macrophage inhibition as in embodiment 14.

The next series deals with HT1080 tumors. Nature of the series: HT1080 tumor model in nude mice, 36 umol/kg. It counts as in vivo. The settings on record: for inhibition in vivo at 36 µmol/kg: Mus musculus, read-out: Tumor inhibition rate Day 28. Here is the method:
• 1. Animals: nude mice aged 6-8 weeks, all female. • 2. Preparation of tumor models • 1) HT1080 cells were purchased from ATCC and characterized according to the instructions provided. […] Randomization was performed when the tumor size reached 100 mm^3. Treatment was then initiated, and the day of initiation of treatment was counted as Day 1. • 3) Treatment process
According to the clinical application of the corresponding compound, the drug was administered intravenously (IV). The compounds indicated in the table were administered at a low dose and at the same dose of 36 umol/kg.

The test system of series [2] is Human hepatoma HepG2 cells. In words: Human liver cancer HepG2 tumors in nude mice. In kind it is in vivo. To be noted: for inhibition in vivo at 54 µmol/kg: HepG2, iv, 672 h. Here is the method: • 1. Animals: nude mice aged 6-8 weeks, all female. • 2. Preparation of tumor models
Human hepatoma HepG2 cells were purchased from ATCC and identified according to the instructions provided. […] Randomization was performed when the tumor size reached 100 mm^3.
Treatment was then initiated, and the day of initiation of treatment was counted as Day 1. • 3) Treatment process
According to the clinical application of the corresponding compound, the drug was administered intravenously (IV). The compound and the control drug were administered at a dose of 54 umol/kg, and DOX could only be administered at a dose of 18 umol/kg due to toxicity limitations.

The nature of series [3]: Water solubility test (observation and HPLC). It counts as physicochemical. To be noted: thermodynamic from solid. Here is the method:
The compounds prepared in accordance with the examples of the disclosure and the reference compounds C1, C2, C3 and C4 were lyophilized (−70° C.).

A further series has as its system CT26 tumor cells. In words: MTT assay of N-CBP and HSA-QHL-095-N-CBP. It counts as cell-based. The settings on record: 48 hours, CT26 tumor cells and CD8+ T cells seeded. As to the method: After counting the separated and cultured cells, adjust the cell concentration with culture medium, inoculate the cells on a 96-well culture plate with 100 μl cell suspension per well, 100000 cells/well of CD8+ T cells and 20000 cells/well of CT26 tumor cells. The 96-well plate was incubated overnight for 24 hour at 37° C. in a carbon dioxide (5%) incubator. After 24 hours, 100 ul of cell culture medium containing different concentrations of drugs was added to the 96-well culture plate, and control wells (0.1% DMSO) without drugs but with corresponding drug solvent were set, and blank wells (Blank) with medium but without cells were set. Each set was prepared in triplicate and the plates were incubated for 48 hours at 37° C. in a 5% CO2 incubator. After 48 hours, 20 μl MTT (5 mg/ml) was added to each well and the incubation was continued for 4 hours. The culture medium was then gently aspirated, and 150 μl DMSO was added to each well as solvent for dissolution. After dissolution, the absorbance at 490 nm was measured with a microplate reader.

[4] abbreviates: 36 umol/kg IV once a week for 3 weeks.
Setting [5] is: 54 umol/kg IV once a week for 4 weeks.
Setting [6] is: Mus musculus, read-out: Tumor inhibition rate (%) Day 28.

On to `COc1cccc2c1C(=O)c1c(O)c3c(c(O)c1C2=O)C[C@@](O)(C(=O)CO)C[C@@H]3O[C@H]1C[C@H](NC(=O)[C@H](CC(C)C)NC(=O)[C@H](CC(N)=O)NC(=O)[C@H](C)NC(=O)[C@H](C)N)[C@H](O)[C@H](C)O1` [AANL-DOX, reference compound] (H-AANL-{Doxorubicin(3'-N)}), for which the “Activation efficiency (%)” value in series [1] (Table 2-1) was found to be 42.1%. For the same compound, the “Inhibition rate of M2 macrophages” value in the series on M2 macrophages worked out at 16.9%. Further, the figures for the “Tumor volume (mm^3) Day 28” value (in the series on HT1080 tumors (setting [4]); in series [2] (setting [5])) were 318.5 ± 197.6 mm^3 and 1564 ± 689.4 mm^3, respectively. Also, in the series on HT1080 tumors (HT-1080, iv, 672 h), the inhibition in vivo at 36 µmol/kg stood at 81.8%. Moreover, the inhibition in vivo at 54 µmol/kg in series [2] (setting [6]) is 46%.
Broadly, the solubility is the concentration that dissolves in the medium under given conditions. Read a low solubility as little dissolved substance. As to `COCCOCC(=O)N[C@@H](C)C(=O)N[C@@H](C)C(=O)N[C@@H](CC(N)=O)C(=O)N[C@@H](CC(C)C)C(=O)N[C@H]1C[C@H](O[C@H]2C[C@](O)(C(=O)CO)Cc3c(O)c4c(c(O)c32)C(=O)c2c(OC)cccc2C4=O)O[C@@H](C)[C@H]1O` [C4 PEG-AANL-DOX, reference compound] (MeOCH2CH2OCH2CO-AANL-{Doxorubicin(3'-N)}), in series [1] (Table 2-3), the “Activation efficiency (%)” value stood at 66.9%. Besides, the “Inhibition rate of M2 macrophages” value in the series on M2 macrophages was 10.5%. Moreover, the solubility in series [3] is less than 5000 µg/mL. Besides, the “Tumor volume (mm^3) Day 28” value in series [2] (setting [5]) was 848.7 ± 347.5 mm^3. For the same compound, in series [2] (setting [6]), the inhibition in vivo at 54 µmol/kg came out at 70.7%.
As usually defined, the inhibition is the relative decrease from the control value, in per cent. Low values mean little suppression, high ones strong suppression. The compound `COc1cccc2c1C(=O)c1c(O)c3c(c(O)c1C2=O)C[C@@](O)(C(=O)CO)C[C@@H]3O[C@H]1C[C@H](N)[C@H](O)[C@H](C)O1` [DOX, doxorubicin, reference compound] showed an inhibition at 10 µM with M2 macrophages (Mus musculus, Macrophage) of 12.6%. In addition, the “Tumor volume (mm^3) Day 28” value was 754.4 ± 587.4 mm^3 in the series with HT1080 tumors (setting [4]) and 1683.4 ± 1087.4 mm^3 in series [2] (DOX 18 umol/kg IV (toxicity limitations)). In addition, the inhibition in vivo at 36 µmol/kg in the series with HT1080 tumors (HT-1080, 672 h, 36 umol/kg IV once a week for 3 weeks) amounted to 56.8%. Further, the inhibition in vivo at 18 µmol/kg in series [2] (Mus musculus, HepG2, 672 h, DOX 18 umol/kg IV (toxicity limitations), read-out: Tumor inhibition rate (%) Day 28) was 41.9%.
As for `[NH3+][Pt-2]1([NH3+])[O]C(=O)C2(CNC2)C(=O)[O]1` [N-CBP], in the series on CT26 tumor cells, the “in vitro cytotoxicity (FIGS. 13 and 14)” value was “stronger than carboplatin and oxaliplatin and weaker than cisplatin”.
Turning to `COc1cccc2c1C(=O)c1c(O)c3c(c(O)c1C2=O)C[C@@](O)(C(=O)CO)C[C@@H]3O[C@H]1C[C@H](NC(=O)[C@H](CC(C)C)NC(=O)[C@H](CC(N)=O)NC(=O)[C@H](C)NC(=O)[C@H](C)NC(=O)CCOCCOCCOCCN2C(=O)C=CC2=O)[C@H](O)[C@H](C)O1` [QHL-010-DOX] (X1-AANL-{Doxorubicin(3'-N)}), the “Tumor volume (mm^3) Day 28” value (with HT1080 tumors (setting [4]); in series [2] (setting [5])) was 0 mm^3 throughout. Also, in the series with HT1080 tumors (HT-1080, iv, 672 h), the inhibition in vivo at 36 µmol/kg was 100%. Moreover, the “growth inhibition of tumor, outcome in words” value with HT1080 tumors (compared with equimolar dose AANL-DOX) was “the tumor disappeared”. In series [2] (setting [6]), the inhibition in vivo at 54 µmol/kg amounted to 100%.
On to `COc1cccc2c1C(=O)c1c(O)c3c(c(O)c1C2=O)C[C@@](O)(C(=O)CO)C[C@@H]3O[C@H]1C[C@H](NC(=O)[C@H](CC(C)C)NC(=O)[C@H](CC(N)=O)NC(=O)[C@H](C)NC(=O)[C@H](C)NC(=O)[C@H](CCC(=O)O)NC(=O)CCOCCOCCN2C(=O)C=CC2=O)[C@H](O)[C@H](C)O1` [QHL-021-DOX] (X3-EAANL-{Doxorubicin(3'-N)}), for which the “Inhibition rate of M2 macrophages” value with M2 macrophages is listed as 68.6%.
As for `CC(NC(=O)CCOCCOCCOCCNC(=O)CCN1C(=O)C=CC1=O)C(=O)NC(C)C(=O)NC(CC(N)=O)C(=O)Nc1ccc(COC(=O)N2CC3(C2)C(=O)[O][Pt-2]([NH3+])([NH3+])[O]C3=O)cc1` (centres unmarked) [QHL-089-N-CBP], the “Inhibition rate of M2 macrophages” value with M2 macrophages stood at 97.4%. Also, the solubility in series [3] is greater than 10000 µg/mL.
For the compound `CC(NC(=O)CCOCCOCCOCCOCCNC(=O)CCN1C(=O)C=CC1=O)C(=O)NC(C)C(=O)NC(CC(N)=O)C(=O)Nc1ccc(COC(=O)N2CC3(C2)C(=O)[O][Pt-2]([NH3+])([NH3+])[O]C3=O)cc1` (centres unmarked) [QHL-092-N-CBP], the “Inhibition rate of M2 macrophages” value in the series with M2 macrophages worked out at 75.8%. Further, the solubility in series [3] was greater than 10000 µg/mL.
As for `CC(NC(=O)CCOCCOCCOCCOCCOCCOCCNC(=O)CCN1C(=O)C=CC1=O)C(=O)NC(C)C(=O)NC(CC(N)=O)C(=O)Nc1ccc(COC(=O)N2CC3(C2)C(=O)[O][Pt-2]([NH3+])([NH3+])[O]C3=O)cc1` (centres unmarked) [QHL-095-N-CBP], the “Inhibition rate of M2 macrophages” value in the series with M2 macrophages is 68.7%. This compound came in with a solubility in series [3] greater than 10000 µg/mL.
On to `COc1cccc2c1C(=O)c1c(O)c3c(c(O)c1C2=O)C[C@@](O)(C(=O)CO)C[C@@H]3O[C@H]1C[C@H](NC(=O)[C@H](CC(C)C)NC(=O)[C@H](CC(N)=O)NC(=O)[C@H](C)NC(=O)[C@H](C)NC(=O)[C@H](CCC(=O)O)NC(=O)CCCCCN2C(=O)C=CC2=O)[C@H](O)[C@H](C)O1` [QHL-117-DOX] ({Hexanoyl(6-maleimido)}-EAANL-{Doxorubicin(3'-N)}), for which the inhibition in vivo at 36 µmol/kg with HT1080 tumors (HT-1080, iv, 672 h) worked out at 100%. Besides, in series [2] (setting [6]), the inhibition in vivo at 54 µmol/kg came to 100%.
With `CC(NC(=O)CCCCCN1C(=O)C=CC1=O)C(=O)NC(C)C(=O)NC(CC(N)=O)C(=O)Nc1ccc(COC(=O)N2CC3(C2)C(=O)[O][Pt-2]([NH3+])([NH3+])[O]C3=O)cc1` (centres unmarked) [QHL-140-N-CBP], in the series on M2 macrophages, the “Inhibition rate of M2 macrophages” value was determined as 89.5%. Also, the solubility in series [3] was greater than 10000 µg/mL.
`CC(NC(=O)CCCN1C(=O)C=CC1=O)C(=O)NC(C)C(=O)NC(CC(N)=O)C(=O)Nc1ccc(COC(=O)N2CC3(C2)C(=O)[O][Pt-2]([NH3+])([NH3+])[O]C3=O)cc1` (centres unmarked) [QHL-143-N-CBP]: the “Inhibition rate of M2 macrophages” value in the series with M2 macrophages is listed as 78.4%. In series [3], this compound gave a solubility greater than 10000 µg/mL.
